In ChEMBL document CHEMBL1201862, “PubChem BioAssay data set” (2004):
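Test compounds were applied to cells in 96-well plates for 48 hours at 5 doses. GI50 = concentration required for 50% inhibition of growth.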 Active and inactive are the calls of the source. Rule as the data show it: active = GI50 up to about 1.1 µM and inactive = higher.

Key:
Test in all cases: DTP human tumour cell line panel, 48 h
PC-3 = test system: PC-3
SK-MEL-5 = test system: SK-MEL-5
MOLT-4 = test system: MOLT-4
COLO 205 = test system: COLO 205
BT-549 = test system: BT-549
A498 = test system: A498
MDA-MB-435 = test system: MDA-MB-435
ACHN = test system: ACHN
SW-620 = test system: SW-620
MDA-MB-231 = test system: MDA-MB-231
SF-539 = test system: SF-539
Hs-578T = test system: Hs-578T
DU-145 = test system: DU-145
SR = test system: SR
NCI/ADR-RES = test system: NCI/ADR-RES
786-0 = test system: 786-0
SK-MEL-28 = test system: SK-MEL-28
HT-29 = test system: HT-29
OVCAR-4 = test system: OVCAR-4
SK-MEL-2 = test system: SK-MEL-2

Measured: GI50

COc1cc(Nc2nc3ccccc3nc2C(=O)O)cc(OC)c1OC
inactive: PC-3 > 100 µM | SK-MEL-5 49.2 µM | MOLT-4 > 100 µM | COLO 205 > 100 µM | BT-549 89.9 µM | A498 35 µM | MDA-MB-435 > 100 µM | ACHN > 100 µM | SW-620 > 100 µM | MDA-MB-231 16.4 µM | SF-539 > 100 µM | Hs-578T 20.8 µM | DU-145 > 100 µM | SR > 100 µM | NCI/ADR-RES 23 µM | 786-0 75.3 µM | SK-MEL-28 30.1 µM

CC1(C)CC[C@]2(C(=O)O)CC[C@]3(C)C(=CC[C@@H]4[C@@]5(C)CC[C@H](OC6OC(C(=O)O)C(O)C(O)C6O)C(C)(C)[C@@H]5CC[C@]43C)[C@@H]2C1 (some centres not stated)
inactive: PC-3 18.2 µM | SK-MEL-5 19.1 µM | HT-29 15.1 µM | MOLT-4 19.8 µM | COLO 205 16.9 µM | BT-549 20.9 µM | A498 19.1 µM | MDA-MB-435 19.2 µM | ACHN 16.1 µM | SW-620 17.4 µM | OVCAR-4 16.8 µM | MDA-MB-231 18.2 µM | SK-MEL-2 15.4 µM | Hs-578T 21.5 µM | DU-145 16.8 µM | SR 15 µM | NCI/ADR-RES 17.7 µM | 786-0 17.5 µM | SK-MEL-28 19.6 µM

CCCC[Si](CCCC)(CCCC)O[C@@H](/C=C/C(=O)OCC)[C@H](Cc1ccccc1)O[Si](CCCC)(CCCC)CCCC
inactive: PC-3 > 100 µM | HT-29 > 100 µM | MOLT-4 > 100 µM | COLO 205 > 100 µM | BT-549 > 100 µM | A498 > 100 µM | MDA-MB-435 > 100 µM | ACHN > 100 µM | SW-620 > 100 µM | OVCAR-4 > 100 µM | MDA-MB-231 > 100 µM | SF-539 > 100 µM | SK-MEL-2 > 100 µM | Hs-578T > 100 µM | DU-145 > 100 µM | SR > 100 µM | NCI/ADR-RES > 100 µM | 786-0 > 100 µM

CC1(C)OC2C(CO)OC(n3ccc(=O)[nH]c3=O)C2O1 (configuration not stated)
inactive: PC-3 > 100 µM | SK-MEL-5 > 100 µM | MOLT-4 > 100 µM | COLO 205 > 100 µM | BT-549 > 100 µM | A498 > 100 µM | MDA-MB-435 > 100 µM | ACHN > 100 µM | SW-620 > 100 µM | MDA-MB-231 > 100 µM | SF-539 > 100 µM | SK-MEL-2 > 100 µM | Hs-578T > 100 µM | DU-145 > 100 µM | SR > 100 µM | NCI/ADR-RES > 100 µM | 786-0 > 100 µM | SK-MEL-28 > 100 µM
